Several values for one entry are separate records, joined by “and”; a condition that tells them apart may be missing. Equal values may be shown once. Read-outs that look alike come from different tables or passages of the source.
Experiments:
[1] = target: T1, Human recombinant PDE10A (hPDE10A) (Homo sapiens, UniProt Q9Y233); test: In vitro assay PDE10A, human clone (SPA, 3H-cAMP hydrolysis); format: biochemical
T1 construct: His tag (inferred from metal chelate purification); made in house; host or cells: Sf9 insect cells (baculovirus)
T1 sequence (Q9Y233 267-1055): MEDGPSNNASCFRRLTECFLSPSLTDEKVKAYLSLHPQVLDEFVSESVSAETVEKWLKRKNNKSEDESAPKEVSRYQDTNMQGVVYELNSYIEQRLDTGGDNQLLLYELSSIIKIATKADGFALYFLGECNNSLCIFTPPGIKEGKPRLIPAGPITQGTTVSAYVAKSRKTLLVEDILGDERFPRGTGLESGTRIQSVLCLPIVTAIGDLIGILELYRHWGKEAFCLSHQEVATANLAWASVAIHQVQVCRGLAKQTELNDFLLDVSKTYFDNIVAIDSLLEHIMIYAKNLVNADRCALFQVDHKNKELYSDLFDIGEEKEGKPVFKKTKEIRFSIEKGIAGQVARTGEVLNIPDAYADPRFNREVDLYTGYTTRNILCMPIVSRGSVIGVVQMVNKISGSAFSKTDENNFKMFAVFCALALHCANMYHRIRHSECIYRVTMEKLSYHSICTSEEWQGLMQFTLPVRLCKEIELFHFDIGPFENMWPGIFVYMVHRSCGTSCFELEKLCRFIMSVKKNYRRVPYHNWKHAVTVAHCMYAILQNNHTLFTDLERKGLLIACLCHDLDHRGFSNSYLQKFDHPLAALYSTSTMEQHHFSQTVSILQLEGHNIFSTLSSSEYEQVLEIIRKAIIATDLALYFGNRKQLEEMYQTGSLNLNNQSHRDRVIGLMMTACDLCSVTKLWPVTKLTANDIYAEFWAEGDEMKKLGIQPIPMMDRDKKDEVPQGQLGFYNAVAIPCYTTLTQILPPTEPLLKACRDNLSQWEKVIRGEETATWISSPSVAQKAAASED
Method in brief: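 Hydrolysis of 3H-cAMP (60 nM cAMP, 0.008 μCi tracer) proceeded for 60 min at room temperature, with the product detected by SPA bead scintillation counting. The enzyme was hPDE10A from baculovirus-infected Sf9 cells in Tris pH 7.8 buffer with MgCl2 and EGTA, and compounds were at 1% DMSO final. Blanks lacked enzyme.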

[2] = target: T2, Rat recombinant PDE10A (rPDE10A2) (Rattus norvegicus, UniProt Q9QYJ6); test: In vitro assay PDE10A, rat clone (SPA, 3H-cAMP hydrolysis); format: biochemical; details: for IC50: read-out: rPDE10A2 pIC50 (converted)
T2 construct: His tag (inferred from metal chelate purification); made in house; host or cells: Sf9 insect cells (baculovirus)
T2 sequence (Q9QYJ6 1-794): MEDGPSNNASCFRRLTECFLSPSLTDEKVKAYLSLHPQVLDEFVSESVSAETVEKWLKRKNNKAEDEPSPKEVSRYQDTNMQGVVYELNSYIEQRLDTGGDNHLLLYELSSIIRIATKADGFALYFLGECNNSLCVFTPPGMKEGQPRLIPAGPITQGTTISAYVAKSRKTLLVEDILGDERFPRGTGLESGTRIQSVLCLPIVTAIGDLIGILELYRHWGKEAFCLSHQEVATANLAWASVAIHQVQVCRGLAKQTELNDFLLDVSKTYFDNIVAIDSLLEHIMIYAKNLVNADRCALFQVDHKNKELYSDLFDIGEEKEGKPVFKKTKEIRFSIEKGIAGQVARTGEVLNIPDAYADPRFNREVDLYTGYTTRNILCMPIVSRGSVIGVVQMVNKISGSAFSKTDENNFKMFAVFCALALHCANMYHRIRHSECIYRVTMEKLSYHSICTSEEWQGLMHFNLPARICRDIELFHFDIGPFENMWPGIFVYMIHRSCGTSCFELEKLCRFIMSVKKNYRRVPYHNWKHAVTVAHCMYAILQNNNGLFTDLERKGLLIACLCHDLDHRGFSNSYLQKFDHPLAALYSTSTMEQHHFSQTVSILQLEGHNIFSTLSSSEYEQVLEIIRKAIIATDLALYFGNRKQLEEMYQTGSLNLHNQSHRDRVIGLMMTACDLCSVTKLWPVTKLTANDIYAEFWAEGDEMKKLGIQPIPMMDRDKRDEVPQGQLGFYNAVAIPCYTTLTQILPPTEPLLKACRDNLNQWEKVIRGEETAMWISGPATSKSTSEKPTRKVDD
Experimental: Rat recombinant PDE10A (rPDE10A2) was expressed in Sf9 cells using a recombinant rPDE10A baculovirus construct. Cells were harvested after 48 h of infection and the rPDE10A protein was purified by metal chelate chromatography on Ni-sepharose 6FF. Tested compounds were dissolved and diluted in 100% DMSO to a concentration 100 fold of the final concentration in the assay. Human recombinant PDE10A ([…]) was expressed in Sf9 cells using a recombinant hPDE10A baculovirus that was made and amplified in house. Cells were harvested after 72 h of infection and the hPDE10A protein was purified by metal chelate chromatography on Ni-sepharose. Compound dilutions (0.4 μl) were added in 384 well plates to 20 μl of incubation buffer (50 mM Tris pH 7.8, 8.3 mM MgCl2, 1.7 mM EGTA). 10 μl of rPDE10A or hPDE10A enzyme in incubation buffer was added and the reaction was started by addition of 10 μl substrate to a final concentration of 60 nM cAMP and 0.008 μCi ^3H-cAMP. The reaction was incubated for 60 minutes at room temperature. After incubation, the reaction was stopped with 20 μl of stop solution consisting of 17.8 mg/ml PDE SPA (scintillation proximity assay) beads. After sedimentation of the beads during 30 minutes the radioactivity was measured in a Perkin Elmer Topcount scintillation counter and results were expressed as cpm. For blanc values the enzyme was omitted from the reaction and replaced by incubation buffer. Control values were obtained by addition of a final concentration of 1% DMSO instead of compound. A best fit curve is fitted by a minimum sum of squares method to the plot of % of control value subtracted with blanc value versus compound concentration and the half maximal inhibitory concentration (IC50) value is derived from this curve.

[3] = target: T3, Human recombinant PDE3A (hPDE3A) (Homo sapiens, UniProt Q14432); test: In vitro assay PDE3A (SPA, 3H-cAMP hydrolysis); format: biochemical; details: for IC50: hPDE3B pIC50, read-out: pIC50 (converted); for Emax: read-out: hPDE3B Emax, read-out: Emax;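 for all read-outs here: the method names PDE3A and the table heading PDE3B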
T3 construct: purchased Scottish Biomedical; host or cells: Sf9 insect cells
T3 sequence (Q14432 whole entry): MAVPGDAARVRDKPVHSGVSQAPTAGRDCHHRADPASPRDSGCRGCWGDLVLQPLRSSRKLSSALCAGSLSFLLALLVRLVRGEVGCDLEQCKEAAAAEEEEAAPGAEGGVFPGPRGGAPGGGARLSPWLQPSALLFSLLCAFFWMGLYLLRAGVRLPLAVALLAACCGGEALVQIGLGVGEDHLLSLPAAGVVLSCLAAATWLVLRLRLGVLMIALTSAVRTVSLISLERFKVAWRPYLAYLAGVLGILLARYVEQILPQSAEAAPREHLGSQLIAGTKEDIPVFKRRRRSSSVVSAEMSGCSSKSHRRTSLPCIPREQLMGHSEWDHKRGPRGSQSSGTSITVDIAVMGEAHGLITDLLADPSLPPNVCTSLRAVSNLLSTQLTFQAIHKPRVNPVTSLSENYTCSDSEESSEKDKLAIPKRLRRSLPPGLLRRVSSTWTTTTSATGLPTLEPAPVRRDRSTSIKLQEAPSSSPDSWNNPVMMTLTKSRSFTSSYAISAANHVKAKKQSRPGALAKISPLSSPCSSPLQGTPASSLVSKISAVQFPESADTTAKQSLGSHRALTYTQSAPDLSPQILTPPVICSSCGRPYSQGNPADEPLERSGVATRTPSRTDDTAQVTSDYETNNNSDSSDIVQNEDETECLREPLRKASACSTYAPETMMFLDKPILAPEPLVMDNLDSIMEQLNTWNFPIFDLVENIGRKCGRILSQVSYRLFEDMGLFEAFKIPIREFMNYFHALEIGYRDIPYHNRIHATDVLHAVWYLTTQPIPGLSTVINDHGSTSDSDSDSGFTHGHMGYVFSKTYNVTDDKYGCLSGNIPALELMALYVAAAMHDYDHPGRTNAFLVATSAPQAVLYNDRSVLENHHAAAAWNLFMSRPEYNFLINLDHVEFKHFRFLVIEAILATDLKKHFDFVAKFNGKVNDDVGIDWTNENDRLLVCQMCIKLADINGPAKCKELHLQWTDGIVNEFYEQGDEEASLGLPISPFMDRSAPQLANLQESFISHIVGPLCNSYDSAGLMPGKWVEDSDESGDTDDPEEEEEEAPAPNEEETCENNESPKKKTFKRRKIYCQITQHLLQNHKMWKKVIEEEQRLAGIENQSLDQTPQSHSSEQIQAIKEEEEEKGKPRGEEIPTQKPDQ
Method in brief: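 Radiometric SPA measuring [3H]-cAMP hydrolysis (0.4 μM cAMP, 2.4 μCi/ml) over 60 min at room temperature, in Tris pH 7.8 buffer with MgCl2 and EGTA, 1% DMSO. Enzyme: recombinant human brain PDE3A expressed in Sf9 cells, used as partially purified lysate. Counts compared with enzyme-free blanks and vehicle controls.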

[4] = target: T4, Human recombinant PDE2A (hPDE2A) (Homo sapiens, UniProt O00408); test: In vitro assay PDE2A (SPA, 3H-cGMP hydrolysis); format: biochemical; details: for Emax: read-out: hPDE2A Emax
T4 construct: His tag (inferred from metal chelate purification); made in house; host or cells: Sf9 insect cells (baculovirus)
T4 sequence (O00408 whole entry): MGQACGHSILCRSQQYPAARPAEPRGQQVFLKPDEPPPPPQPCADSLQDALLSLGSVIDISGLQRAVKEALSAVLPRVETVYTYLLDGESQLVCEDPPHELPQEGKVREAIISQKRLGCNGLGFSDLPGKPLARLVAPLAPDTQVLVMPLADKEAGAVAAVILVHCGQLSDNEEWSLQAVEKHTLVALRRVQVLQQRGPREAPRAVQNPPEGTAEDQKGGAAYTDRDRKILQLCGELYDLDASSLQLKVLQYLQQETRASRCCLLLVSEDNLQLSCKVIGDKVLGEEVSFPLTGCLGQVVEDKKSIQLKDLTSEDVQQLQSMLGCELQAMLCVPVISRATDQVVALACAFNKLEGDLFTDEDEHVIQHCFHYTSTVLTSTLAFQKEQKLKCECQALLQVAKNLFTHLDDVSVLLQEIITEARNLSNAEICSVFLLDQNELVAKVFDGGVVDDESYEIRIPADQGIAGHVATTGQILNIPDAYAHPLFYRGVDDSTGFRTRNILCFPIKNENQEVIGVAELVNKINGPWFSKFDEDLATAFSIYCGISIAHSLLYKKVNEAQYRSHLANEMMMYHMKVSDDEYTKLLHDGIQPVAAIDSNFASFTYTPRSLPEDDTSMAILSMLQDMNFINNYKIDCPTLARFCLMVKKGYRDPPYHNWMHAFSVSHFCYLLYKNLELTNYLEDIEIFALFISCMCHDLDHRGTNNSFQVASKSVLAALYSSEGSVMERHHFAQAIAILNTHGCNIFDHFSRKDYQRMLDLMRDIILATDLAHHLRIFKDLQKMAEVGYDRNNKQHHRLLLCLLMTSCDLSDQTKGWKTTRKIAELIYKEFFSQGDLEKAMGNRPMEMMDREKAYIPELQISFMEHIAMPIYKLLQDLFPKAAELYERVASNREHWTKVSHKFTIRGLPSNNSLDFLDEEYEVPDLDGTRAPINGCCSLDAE

PDE2A = target: T5, PDE2A (Rattus norvegicus, UniProt Q01062); test: PDE2 occupancy by test compounds, ex-vivo autoradiography with [3H]B-17a; format: in vivo, Male Wistar rats; details: for receptor occupancy at 10 mg/kg: percentage receptor occupancy, ex-vivo autoradiography, striatum; for ED50: drug dose producing 50% receptor occupancy, read-out: PDE Occupancy ED50
T5 construct: Twenty μm-thick striatal sections were cut; from tissue; host or cells: rat brain, striatal sections
T5 sequence (Q01062 1-928): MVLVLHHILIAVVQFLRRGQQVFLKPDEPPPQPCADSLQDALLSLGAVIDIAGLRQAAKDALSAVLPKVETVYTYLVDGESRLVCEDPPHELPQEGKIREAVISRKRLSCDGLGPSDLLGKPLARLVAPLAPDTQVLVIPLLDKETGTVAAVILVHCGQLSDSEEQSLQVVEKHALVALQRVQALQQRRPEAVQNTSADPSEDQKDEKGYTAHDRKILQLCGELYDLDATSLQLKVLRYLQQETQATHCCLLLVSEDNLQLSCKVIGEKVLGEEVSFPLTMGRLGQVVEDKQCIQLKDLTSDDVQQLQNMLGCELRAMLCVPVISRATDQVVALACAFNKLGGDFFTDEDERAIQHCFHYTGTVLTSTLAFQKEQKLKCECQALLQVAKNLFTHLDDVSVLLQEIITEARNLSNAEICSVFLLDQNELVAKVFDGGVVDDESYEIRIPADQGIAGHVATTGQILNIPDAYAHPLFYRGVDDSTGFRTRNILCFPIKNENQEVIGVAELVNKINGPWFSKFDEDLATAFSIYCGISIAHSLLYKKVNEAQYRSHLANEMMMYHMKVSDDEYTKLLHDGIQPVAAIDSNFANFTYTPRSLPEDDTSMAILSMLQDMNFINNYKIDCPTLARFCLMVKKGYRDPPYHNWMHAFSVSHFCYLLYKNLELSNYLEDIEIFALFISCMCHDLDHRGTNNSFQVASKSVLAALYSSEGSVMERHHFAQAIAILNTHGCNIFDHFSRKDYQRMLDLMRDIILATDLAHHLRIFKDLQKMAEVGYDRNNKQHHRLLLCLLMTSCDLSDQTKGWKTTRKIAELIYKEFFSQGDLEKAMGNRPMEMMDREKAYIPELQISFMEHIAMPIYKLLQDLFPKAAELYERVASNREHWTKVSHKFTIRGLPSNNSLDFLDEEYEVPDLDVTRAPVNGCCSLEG

[5] = human clone (h), default, read-out: hPDE10A2 Emax
[6] = human clone (h), default, read-out: hPDE10A2 pIC50 (converted)
[7] = human recombinant PDE2A, 10 μM cGMP substrate, read-out: hPDE2A pIC50 (converted)
[8] = read-out: hPDE2A pIC50 (converted)

Compound	Emax [1, 5] [%]	IC50 [1, 6]	Emax ([2]; rat clone (r)) [%]	IC50 ([2]; rat clone (r)) [nM]	rPDE10A2 pIC50 ([2]; rat clone, indicated as (r))	IC50 [3] [nM]	Emax [3] [%]	IC50 [4, 7] [nM]	Emax ([4]; human recombinant PDE2A) [%]	Emax [4] [%]	IC50 [4, 8] [nM]	melting point [°C]	receptor occupancy at 10 mg/kg (PDE2A; po, route PO (oral)) [%]	further results
C[C@@H]1CCN(C(=O)c2ccc3occc3c2)C[C@H]1c1cc(C(F)F)nc2ncnn12 [Compound 97]	101	53.7 nM	99	34.7	7.46 (r)									
CC1(c2ccnc3ncnn23)CCCN(C(=O)c2ccc3occc3c2)C1 (stereo not drawn) [Compound 202]	38	> 10000 nM	4	> 10000	<5 (r)	> 10000	18	2690	30	30	2690	78.65		
C[C@@H]1CCN(C(=O)c2ccc3nccn3c2)C[C@H]1c1cc(C(F)F)nc2ncnn12 [Compound 40]	97	123 nM				7080	58	0.355	101	101	0.355	181.11		rPDE10A2 pIC50 ([2]; rat clone (r)): 7.1 (r); Emax ([2]; rat clone, indicated as (r)): 96%; IC50 ([2]; rat clone, indicated as (r)): 79.4 nM
CC1(c2cc(C(F)F)nc3ncnn23)CCCN(C(=O)c2ccc3occc3c2)C1 (stereo not drawn) [Compound 201]			-1	3090	5.51 (r)	> 10000	24	646	61	61	646	140.14		
CC(=O)N1CCc2cc(C(=O)N3CCC[C@@](C)(c4cc(C(F)F)nc5ncnn45)C3)ccc21 (single isomer, unassigned) [Compound 203]			14	> 10000	<5 (r)	> 10000	41	955	48	48	955	204.03		
C[C@@H]1CCN(C(=O)c2ccc(F)c(C(F)F)c2)C[C@H]1c1cc(C(F)F)nc2ncnn12 [Compound 191]	97	224 nM				3890	74	12.9	100	100	12.9	162.07	-18	
C[C@@H]1CCN(C(=O)c2ccc3ncsc3c2)C[C@H]1c1cc(C(F)F)nc2ncnn12 [Compound 228]	100	17 nM				1200	91	0.224	100	100	0.224	178.21		ED50 (PDE2A; route PO (oral)): 1.5 mg/kg; receptor occupancy at 10 mg/kg (PDE2A; sc, route SC (subcutaneous)): 92%; Emax ([1]; human clone by default (no (r) mark), read-out: hPDE10A2 or rPDE10A2 Emax): 100%; IC50 ([1]; human clone by default (no (r) mark), read-out: hPDE10A2 or rPDE10A2 pIC50 (converted)): 17 nM
C[C@@H]1CCN(C(=O)c2ccc(OC(F)F)c(F)c2)C[C@H]1c1cc(C(F)F)nc2ncnn12 [Compound 192]	99	72.4 nM				724	95	9.33	99	99	9.33	110.16	-13	
Cc1cc(C(=O)N2CC[C@@H](C)[C@H](c3cc(C(F)F)nc4ncnn34)C2)cc(C2CC2)n1 [Compound 93]	99	36.3 nM and 39.8 nM				2570	84	0.398	101	101	0.457	201.12	85	ED50 (PDE2A; route PO (oral)): 7.8 mg/kg
Cc1cc(C#N)cc(C(=O)N2CC[C@@H](C)[C@H](c3cc(C(F)F)nc4ncnn34)C2)c1 [Compound 131]	99	40.7 nM				7760	61			98		224.39	0	IC50 ([4]; hPDE2A pIC50): 2.45 nM; IC50 ([4]; hPDE2A pIC50, human recombinant PDE2A, 10 μM cGMP substrate): 2.45 nM

Reference: patent publication US10947242B2, “[1,2,4]triazolo[1,5and#8208;A]pyrimidine compounds as PDE2 inhibitors” (Janssen Pharmaceutica NV, priority 2016, dated 2021)
